Source: patent US20230309833A1, “METHODS AND MATERIALS FOR USING [18F]-F-ARAG IN CARDIAC IMAGING” (CELLSIGHT TECHNOLOGIES INC., priority 2020, published 2023)

Key:
[1] = some patients; cited from earlier work
[2] = target: T1, deoxyguanosine kinase (dGK) (Homo sapiens, UniProt Q16854); experiment: Enzyme kinetics of dGK; type: biochemical; details: dGuo positive control, unit not given
T1 sequence (Q16854 40-277): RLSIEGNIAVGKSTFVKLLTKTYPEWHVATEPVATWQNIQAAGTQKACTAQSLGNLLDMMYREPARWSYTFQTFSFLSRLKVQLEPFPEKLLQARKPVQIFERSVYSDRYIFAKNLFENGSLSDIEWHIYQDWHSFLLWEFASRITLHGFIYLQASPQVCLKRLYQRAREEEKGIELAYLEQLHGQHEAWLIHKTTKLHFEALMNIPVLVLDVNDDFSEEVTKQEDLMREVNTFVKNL
Excerpt: […]. Lines indicate best fit. […]. Lines indicate best fit. […].

CCRF-CEM cells = experiment: Competition of cold 2F-AraG with 8-[3H]-AraG uptake, CCRF-CEM; type: cell-based; details: increasing 2F-AraG 1-100 µM, 60 or 120 minutes
Protocol: FIG. 2.3A illustrates a graph of 5 × 10^5CCRF-CEM cells were incubated, in triplicate, with 1uCi 8H^3-AraG (1mCi/ml) and increasing amounts of cold 2F-AraG or DMSO for either 60 or 120 minutes. Percent of control uptake was calculated as: measured cpm of sample/ cpm accumulated 1uCi 8[H^3]-AraG control x 100.
Previously we successfully synthesized a novel ^18F derivative of 2-deoxyguanosine analog, 9-β-D-arabinofuranosylguanine (“^18F-AraG” or “[^18F]F—AraG)”, to use as a molecular probe (FIG. 2.1). [^18F]AraG cell uptake was evaluated in leukemia cell line, CCRF-CEM, and was compared with [^3H]AraG cell uptake. […] To determine whether cold derivative 2F-AraG competes with the uptake of 8-[^3H]—AraG, we studied the [^3H]-Arag uptakes by CCRF-CEM, MOLT-4 (Leukemia cell line) and Raji (human Burkitt’s lymphoma cell line) and competition with cold 2F-AraG (FIGS. 2.3A and 2.3B). […] Competition assays indicate that cold derivative 2F-Arag competes with the uptake of the 8-[^3H]—AraG, indicating similar uptake pathways.

colon cancer model = type: in vivo, mice; details: tumors and tumor draining lymph nodes
Excerpt: FIGS. 13A-13D show data from embodiments of the invention. FIG. 13A. […] FIG. 13B. […] White circles indicate tumor draining lymph nodes, yellow arrows point to tumors. FIG. 13C.
The discovery of the immune response that results from chemotherapy-induced tumor cell death, termed immunogenic cell death (32), has sparked interest in harnessing chemotherapy’s immunomodulatory effects for possible synergistic combinations with immunotherapeutics (33,34).

heart = details: cited from earlier work
[3] = substrate: Nc1nc2c(ncn2[C@H]2C[C@H](O)[C@@H](CO)O2)c(=O)[nH]1; experiment: purified protein, by the assay type; details: other: dGuo positive control, unit inferred

Nc1nc2c(ncn2[C@@H]2O[C@H](CO)[C@@H](O)[C@@H]2O)c(=O)[nH]1 [AraG, 9-(β—D—Arabinofuranosyl)guanine]
Therapeutic serum level at which neurotoxic side effects are reported [1]: ~ 150 µM

Nc1nc2c(ncn2[C@H]2C[C@H](O)[C@@H](CO)O2)c(=O)[nH]1 [dGuo, 2′-deoxyguanosine]
Vmax of dGK [2]: 123.2

Nc1nc2c(ncn2[C@@H]2O[C@H](CO)[C@@H](O)[C@@H]2F)c(=O)[nH]1 [2F-AraG, 2′-Deoxy-2′-fluoro-9-β-D-arabinofuranosylguanine]
Effect on [3H]-AraG uptake (CCRF-CEM cells): decrease

Paclitaxel/carboplatin
Change in [18F]F-AraG signal intensity after treatment (colon cancer model): did not lead to appreciable changes

CC(C)Oc1cccc(C=NCC(C)(C)CNCCNCC(C)(C)CN=Cc2cccc(OC(C)C)c2[O-])c1[O-].[68Ga+3].[I-] [^68Ga-Galmydar]
Cardiac uptake of tracer in doxorubicin treated animals (heart; preclinical studies): reduction in cardiac uptake

COc1cccc2c1C(=O)c1c(O)c3c(c(O)c1C2=O)C[C@@](O)(C(=O)CO)C[C@@H]3O[C@H]1C[C@H](N)[C@H](O)[C@H](C)O1 [doxorubicin]
Effect of treatment on 18FDG uptake in the heart (heart; in vivo): increase

B1: deoxyguanosine kinase (dGK) (Homo sapiens) (protein)
chain: RLSIEGNIAVGKSTFVKLLTKTYPEWHVATEPVATWQNIQAAGTQKACTAQSLGNLLDMMYREPARWSYTFQTFSFLSRLKVQLEPFPEKLLQARKPVQIFERSVYSDRYIFAKNLFENGSLSDIEWHIYQDWHSFLLWEFASRITLHGFIYLQASPQVCLKRLYQRAREEEKGIELAYLEQLHGQHEAWLIHKTTKLHFEALMNIPVLVLDVNDDFSEEVTKQEDLMREVNTFVKNL
Km [3]: 5.08 µM
